77 sequences from the supplement of paper PMC11208160 can be followed below.
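Further: IS621 recombinase and bridge RNA in Escherichia coli cells.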

This data set is described as follows: recombinant barcode read abundance after kanamycin selection (control-corrected) (log10(CPM+1)); higher = more efficient recombination; sequences stand for … in AGTGCAGAGAAAATCGGCCAGTTTTCTCTGCCTGCAGTCCGCATGCCGT…AGATTTATGCAGCGGACTGCCTTTCTCCCAAAGTGATAAACCGGACAGTATCATGGACCGGTTTTCCCGGTAATCCGTATTTGCAAGGTTGGTTTCACT; site = the 11-nt target. The method in brief: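 Reported as log10(CPM+1), each value stands for recombination efficiency. That efficiency is the averaged, control-corrected counts per million of barcodes found at recombinant junctions. Cells from a pooled E. coli library pairing targets with IS621 bridge RNA target-binding loops were plated twice on chloramphenicol/ampicillin LB agar (control) and twice on chloramphenicol/ampicillin/kanamycin with 0.1 mM IPTG.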
On to “CTAAATACTTGGGTTCTAACCTGTTGCTT (site CTAAATACTAA)”, for which the “recombinant barcode read abundance (log10)” value came out at 0.383. For “CTAAATACTTGGGTTCTAACCTGTTGCTT (site CTATATACTAA)”, the “recombinant barcode read abundance (log10)” value was determined as 0.107. Regarding “CTAACCTCTTGGGTTCTAACCTGTTGCAT (site CTAACCTCTAT)”, the “recombinant barcode read abundance (log10)” value was found to be 2.1. As to “CTAACCTCTTGGGTTCTAACCTGTTGCAT (site CTACCCTCTAT)”, the “recombinant barcode read abundance (log10)” value stood at 0.0596. The value for “CTAACCTCTTGGGTTCTAACCTGTTGCAT (site CTAGCCTCTAT)” was 0.151; that for “CTAACCTCTTGGGTTCTAACCTGTTGCAT (site CTATCCTCTAT)” was 0.0287. The value for “CTAACTACTTGGGTTCTAACCTGTTGCTT (site AGTTGGCCTCT)” was 0.41; that for “CTAACTACTTGGGTTCTAACCTGTTGCTT (site CTAACTACTAA)” was 0.252. Consider “CTAACTCCTTGGGTTCTAACCTGTTGCCT (site ATACCTCCTAG)”, for which the “recombinant barcode read abundance (log10)” value was 0.242. In the case of “CTAACTCCTTGGGTTCTAACCTGTTGCCT (site CTAACTCCTAG)”, the “recombinant barcode read abundance (log10)” value worked out at 0.401. With “CTAACTCCTTGGGTTCTAACCTGTTGCTG (site CTAACTCCTCA)”, the “recombinant barcode read abundance (log10)” value came to 0.12. As to “CTAACTCCTTGGGTTCTAACCTGTTGCTG (site CTAACTGCTCC)”, the “recombinant barcode read abundance (log10)” value was 0.524.

Consider “CTAACTGCTTGGGTTCTAACCTGTTGCGG (site CTAACTCCTCA)”, for which the “recombinant barcode read abundance (log10)” value was 0.0417. As for “CTAACTGCTTGGGTTCTAACCTGTTGCGG (site CTAACTGCTCC)”, the “recombinant barcode read abundance (log10)” value came to 0.633. Take “CTAACTGCTTGGGTTCTAACCTGTTGCGT (site CTAACTGCTAC)”: the “recombinant barcode read abundance (log10)” value was 0.96.

On to “CTAACTGCTTGGGTTCTAACCTGTTGCGT (site TCCCAAACTGT)”, for which the “recombinant barcode read abundance (log10)” value came out at 0.177. Take “CTAAGAACTTGGGTTCTAACCTGTTGCCT (site CTAAGAACTAA)”: the “recombinant barcode read abundance (log10)” value was 0.0228.

As for “CTAAGAACTTGGGTTCTAACCTGTTGCCT (site CTAAGAACTAC)”, the “recombinant barcode read abundance (log10)” value was 1.05. On to “CTAAGAACTTGGGTTCTAACCTGTTGCCT (site CTAAGAACTAG)”, for which the “recombinant barcode read abundance (log10)” value amounted to 0.604. For “CTAAGAACTTGGGTTCTAACCTGTTGCCT (site CTAAGAACTAT)”, the “recombinant barcode read abundance (log10)” value is 0. On to “CTAAGATCTTGGGTTCTAACCTGTTGCCT (site CAAAGATCTAG)”, for which the “recombinant barcode read abundance (log10)” value came to 0.0172.

Turning to “CTAAGATCTTGGGTTCTAACCTGTTGCCT (site CCAAGATCTAG)”, the “recombinant barcode read abundance (log10)” value was found to be 0.119. As to “CTAAGATCTTGGGTTCTAACCTGTTGCCT (site CGAAGATCTAG)”, the “recombinant barcode read abundance (log10)” value is 0.0614. The value for “CTAAGATCTTGGGTTCTAACCTGTTGCCT (site CTAAGATCTAG)” was 0.169; that for “CTAAGCTCTTGGGTTCTAACCTGTTGCTA (site CTAAGCTCTAA)” was 0.0436. The value for “CTAAGCTCTTGGGTTCTAACCTGTTGCTA (site CTAAGCTCTCA)” was 0.0617. Regarding “CTAAGCTCTTGGGTTCTAACCTGTTGCTA (site CTAAGCTCTGA)”, the “recombinant barcode read abundance (log10)” value worked out at 0.172. Regarding “CTAAGCTCTTGGGTTCTAACCTGTTGCTA (site CTAAGCTCTTA)”, the “recombinant barcode read abundance (log10)” value came to 0.939.

For “CTAAGGACTTGGGTTCTAACCTGTTGCTA (site CGAAGGACTTA)”, the “recombinant barcode read abundance (log10)” value was determined as 0.0114. As to “CTAAGGACTTGGGTTCTAACCTGTTGCTA (site CTAAGGACTTA)”, the “recombinant barcode read abundance (log10)” value is 1.11. On to “CTAAGGCCTTGGGTTCTAACCTGTTGCAT (site AAGTCCTCTCA)”, for which the “recombinant barcode read abundance (log10)” value is 0.428. On to “CTAAGGCCTTGGGTTCTAACCTGTTGCAT (site CTAAGGCCTAT)”, for which the “recombinant barcode read abundance (log10)” value came to 1.85. The value for “CTAAGGGCTTGGGTTCTAACCTGTTGCTG (site CTAAGGACTAA)” was 0.314; that for “CTAAGGGCTTGGGTTCTAACCTGTTGCTG (site CTAAGGGCTCA)” was 0.772. As for “CTAAGGTCTTGGGTTCTAACCTGTTGCGT (site CTAAGGTCTAA)”, the “recombinant barcode read abundance (log10)” value amounted to 0.31. On to “CTAAGGTCTTGGGTTCTAACCTGTTGCGT (site CTAAGGTCTAC)”, for which the “recombinant barcode read abundance (log10)” value amounted to 2.69. Consider “CTAAGGTCTTGGGTTCTAACCTGTTGCGT (site CTAAGGTCTAG)”, for which the “recombinant barcode read abundance (log10)” value turned out to be 0.209.

“CTAAGGTCTTGGGTTCTAACCTGTTGCGT (site CTAAGGTCTAT)”: the “recombinant barcode read abundance (log10)” value came out at 1.9.

As to “CTAAGGTCTTGGGTTCTAACCTGTTGCTT (site CTAAGGTCTAA)”, the “recombinant barcode read abundance (log10)” value was found to be 0.462.

Consider “CTAAGGTCTTGGGTTCTAACCTGTTGCTT (site CTAAGGTCTAC)”, for which the “recombinant barcode read abundance (log10)” value is 0.132. For the sequence “CTAAGGTCTTGGGTTCTAACCTGTTGCTT (site CTAAGGTCTAG)”, the “recombinant barcode read abundance (log10)” value was determined as 0.186. Turning to “CTAAGGTCTTGGGTTCTAACCTGTTGCTT (site CTAAGGTCTAT)”, the “recombinant barcode read abundance (log10)” value was determined as 0.886.

With “CTAAGTACTTGGGTTCTAACCTGTTGCAG (site CTAAGTACTCT)”, the “recombinant barcode read abundance (log10)” value is 1.56.

Consider “CTAAGTACTTGGGTTCTAACCTGTTGCAG (site CTAATTACTTT)”, for which the “recombinant barcode read abundance (log10)” value stood at 0.56. Turning to “CTAATATCTTGGGTTCTAACCTGTTGCAT (site AATGGTCCTTG)”, the “recombinant barcode read abundance (log10)” value stood at 0.105. In the case of “CTAATATCTTGGGTTCTAACCTGTTGCAT (site CTAATATCTAT)”, the “recombinant barcode read abundance (log10)” value came to 1.26. “CTAATCCCTTGGGTTCTAACCTGTTGCAT (site CATATCCCTAT)”: the “recombinant barcode read abundance (log10)” value stood at 0.0276. For the sequence “CTAATCCCTTGGGTTCTAACCTGTTGCAT (site CTAATCCCTAT)”, the “recombinant barcode read abundance (log10)” value came to 1.59. As for “CTAATGGCTTGGGTTCTAACCTGTTGCCT (site CTAATAGCTAG)”, the “recombinant barcode read abundance (log10)” value was found to be 0.176. With “CTAATGGCTTGGGTTCTAACCTGTTGCCT (site CTAATGGCTAG)” the figure was 0.178; with “CTACAACCTTGGGTTCTAACCTGTTGCAG (site CTACAACCTCT)”, 2.02.

“CTACAACCTTGGGTTCTAACCTGTTGCAG (site TGGACTACTGA)”: the “recombinant barcode read abundance (log10)” value turned out to be 0.25. Take “CTACACACTTGGGTTCTAACCTGTTGCTA (site CTACACACTGA)”: the “recombinant barcode read abundance (log10)” value worked out at 0.00924. In the case of “CTACACACTTGGGTTCTAACCTGTTGCTA (site CTACACACTTA)”, the “recombinant barcode read abundance (log10)” value is 1.91. On to “CTACACCCTTGGGTTCTAACCTGTTGCGA (site CTAAACCCTAC)”, for which the “recombinant barcode read abundance (log10)” value was found to be 0.0483. For the sequence “CTACACCCTTGGGTTCTAACCTGTTGCGA (site CTACACCCTTC)”, the “recombinant barcode read abundance (log10)” value amounted to 2.39. As to “CTACATCCTTGGGTTCTAACCTGTTGCTT (site CTACAACCTAA)”, the “recombinant barcode read abundance (log10)” value turned out to be 0.00817.

“CTACATCCTTGGGTTCTAACCTGTTGCTT (site CTACACCCTAA)”: the “recombinant barcode read abundance (log10)” value turned out to be 0.157. As for “CTACATCCTTGGGTTCTAACCTGTTGCTT (site CTACAGCCTAA)”, the “recombinant barcode read abundance (log10)” value worked out at 0.0896.

For “CTACATCCTTGGGTTCTAACCTGTTGCTT (site CTACATCCTAA)”, the “recombinant barcode read abundance (log10)” value worked out at 1.49. Turning to “CTACCTACTTGGGTTCTAACCTGTTGCGG (site AATATCTCTTG)”, the “recombinant barcode read abundance (log10)” value was 0.224.

As for “CTACCTACTTGGGTTCTAACCTGTTGCGG (site CTACCTACTCC)”, the “recombinant barcode read abundance (log10)” value came to 2.72. “CTACGAACTTGGGTTCTAACCTGTTGCGG (site CTACGAACTCC)”: the “recombinant barcode read abundance (log10)” value came out at 2.17. Consider “CTACGAACTTGGGTTCTAACCTGTTGCGG (site TGGACCTCTTG)”, for which the “recombinant barcode read abundance (log10)” value was found to be 0.181.

Take “CTACGACCTTGGGTTCTAACCTGTTGCAG (site CTACGACCTCT)”: the “recombinant barcode read abundance (log10)” value came to 2.56.

For the sequence “CTACGACCTTGGGTTCTAACCTGTTGCAG (site TACGATACTAC)”, the “recombinant barcode read abundance (log10)” value is 0.186. Take “CTACGACCTTGGGTTCTAACCTGTTGCGG (site CTACGACCTCC)”: the “recombinant barcode read abundance (log10)” value was determined as 2.9. With “CTACGACCTTGGGTTCTAACCTGTTGCGG (site TACAAGTCTAG)”, the “recombinant barcode read abundance (log10)” value was determined as 0.164. Turning to “CTACGCGCTTGGGTTCTAACCTGTTGCTT (site CTACGCGCTAA)”, the “recombinant barcode read abundance (log10)” value was found to be 0.921. In the case of “CTACGCGCTTGGGTTCTAACCTGTTGCTT (site GTACGCGCTAC)”, the “recombinant barcode read abundance (log10)” value is 0.309. With “CTACGGCCTTGGGTTCTAACCTGTTGCGT (site CTACGGCCTAC)”, the “recombinant barcode read abundance (log10)” value worked out at 1.05. “CTACGGCCTTGGGTTCTAACCTGTTGCGT (site GGACGGCCTAC)”: the “recombinant barcode read abundance (log10)” value came out at 0.281. Turning to “CTAGACTCTTGGGTTCTAACCTGTTGCAC (site CTAGACTCTAT)”, the “recombinant barcode read abundance (log10)” value is 0.626. As to “CTAGACTCTTGGGTTCTAACCTGTTGCAC (site CTAGACTCTCT)”, the “recombinant barcode read abundance (log10)” value was found to be 0.0956. Consider “CTAGACTCTTGGGTTCTAACCTGTTGCAC (site CTAGACTCTGT)”, for which the “recombinant barcode read abundance (log10)” value was 2.77. For the sequence “CTAGACTCTTGGGTTCTAACCTGTTGCAC (site CTAGACTCTTT)”, the “recombinant barcode read abundance (log10)” value is 0.11. For the sequence “CTAGACTCTTGGGTTCTAACCTGTTGCAG (site CTAGACTCTAT)”, the “recombinant barcode read abundance (log10)” value was determined as 0.88.
